The subject of data set [1] is Conyza canadensis (L.) (ERICA). Put plainly: Postemergence herbicide evaluation, percent reduction in plant size vs untreated control, 21 days after treatment. It is filed as in vivo, Conyza canadensis (L.) (Horseweed). As to conditions: Erigeron canadensis, post-emergence, 504 h, read-out: Control/Injury. The gist of the method:
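Horseshoe-weed (horseweed) seedlings at 2 to 8 leaf stage in greenhouse (25-28° C, 16 h light), sprayed postemergence at 140 or 280 g ae/ha in acetone/DMSO-based spray solution, 187 L/ha track-sprayer. Randomized complete block, 3-4 replicates; plant size measured 21 days after treatment as percent reduction vs untreated controls.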

In the next data set the test system is Kochia scoparia (KCHSC). The description is as above. The class given is in vivo. As to conditions: Bassia scoparia, post-emergence, 504 h, read-out: Control/Injury. Put shortly:
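Greenhouse-grown plants (25-28 °C, 16 h light) at the 2 to 8 leaf stage were track-sprayed postemergence at 140 or 280 g ae/ha in acetone/DMSO-based spray solution with crop oil and surfactant, at 187 L/ha, in 3-4 randomized replicates.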

In another data set the test system is Glycine max. Put plainly: whole plant or invertebrate. Conditions: for plant injury at 140 g/ha / plant injury at 280 g/ha: Glycine max, post-emergence, 504 h, read-out: Control/Injury. As for the experimental part: Plants were grown in a soil media composed of 90% by volume Promix BX (Premier Tech Horticulture, Quakertown, PA) and 10% Profile Greens Grade (Profile Products LLC, Buffalo Grove, IL). Promix BX contains approximately 83% Sphagnum Peat Moss, 13% Perlite, 5% vermiculite, and proprietary amounts of limestone, starter fertilizer, and wetting agent. Profile Greens Grade is a sand-sized granule formed from calcining illite and montmorillonite clay. Several seeds of each species were planted in 10 cm square pots and top watered twice daily. Plant material was propagated in a warm greenhouse with temperature ranging from 25 to 28° C. and 50 to 60% relative humidity at the Corteva Global Headquarters (Indianapolis, Indiana, USA). Natural light was supplemented with 1000-watt metal halide overhead lamps with an average illumination of 500 μE m^−2 s^−1 photosynthetic active radiation for 16 consecutive hours each day. Plants were top-watered prior to herbicide application and sub-watered after herbicide application.
Appropriate amounts of test materials were weighed out into glass vials in their technical form to deliver either 140 or 280 g acid equivalent (ae)/ha. The samples were dissolved in 3 ml of Solvent 1. Solvent 1 is 97% acetone and 3% dimethyl sulfoxide and serves as a general-purpose solvent (GPS) for dissolving technical materials. […] The samples were then diluted to their final concentration using 17 ml of solvent 2 for a total of 20 ml of spray solution. Solvent 2 contains 41.58% GPS, 45.53% water, 11.88% isopropyl alcohol, 0.99% crop oil concentrate and 0.02% Trition X-155 surfactant. All percentages are listed on a volume basis. Dicamba diglycolamine was applied as a formulated herbicide, Clarity™ and diluted with solvent 2 to compare all materials in the same spray solution.
Herbicide applications were made to 3 to 4 replicates of each plant species at the 2 to 8 leaf stage, depending on the species. Treatments were applied with a research track-sprayer (Generation III Research Sprayer manufactured by DeVries Manufacturing in Hollandale, MN, USA) calibrated to deliver a spray volume of 187 L/ha. The track-sprayer was fitted with an 8003E nozzle from Spray Systems Company (North Avenue and Schmale Road, P.O. Box 7900, Wheaton, IL 60187), and used a spray pressure of 276 kPa pressure and a speed of 3.1 km/h. The nozzle height was 46 cm above the plant canopy. The experimental design used for the trials was a randomized complete block with 3 or 4 replications per treatment. After application, plants were placed on carts according to the randomization and returned to the greenhouse. Plants were sub-watered after treatment with Indianapolis city water or fertilized three times a week with a commercial fertilizer solution (Jack's Professional 15-5-15 4 Ca 2 Mg fertilizer (manufactured by JR PETERS INC., 6656 Grant Way, Allentown, PA 18106; www.jrpeters.com). Percent visual control assessments were made on a scale of 0 to 100% (where 0 was no control and 100 was complete plant death) at 7, 14, and 21 days after treatment.
In conformity with the methods outlined in Example 49, the effect of representative experimental compounds on the growth of Glycine max was determined at 2 different levels (respectively, 140 and 280 g acid equivalent (ae)/ha) of the experimental actives tested. Plants were treated with one of the compounds, a control plant was not treated. Twenty-one days after treatment, the plants were measured. The data is present as a percent reduction in plant size relative to the untreated control.

Data set [2] has as its system Ambrosia artemisiifolia (AMBEL). Put plainly: Postemergence herbicide evaluation, percent reduction in plant size vs untreated control, 21 days after treatment. The class given is in vivo, Ambrosia artemisiifolia (common ragweed). Conditions: post-emergence, 504 h, read-out: Control/Injury. Put shortly: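 Greenhouse-grown plants (25–28 °C, 16 h light) were sprayed postemergence at the 2–8 leaf stage with 140 or 280 g ae/ha in acetone/DMSO-based spray solution with crop oil and surfactant, at 187 L/ha by track sprayer. There were 3–4 replicates. Plant size was measured 21 days after treatment versus untreated plants.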

Another data set concerns Amaranthus rudis (AMATA). The data set is described as above. The class given is in vivo, Amaranthus rudis (tall water hemp). Conditions: Amaranthus tuberculatus, post-emergence, 504 h, read-out: Control/Injury. The gist of the method:
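Greenhouse-grown tall waterhemp (25-28° C, 16 h light) at the 2-8 leaf stage, treated by track sprayer at 187 L/ha with compound at 140 or 280 g ae/ha in acetone/DMSO-based spray solution with crop oil and surfactant. 3-4 replicates per treatment, randomized complete block; plant size reduction versus untreated control measured 21 days after treatment.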

Data set [3] has as its system Amaranthus palmeri (AMAPA). The description is as above. Conditions: post-emergence, 504 h, read-out: Control/Injury. The class given is in vivo, Amaranthus palmeri (Palmer amaranth). Put shortly:
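Greenhouse-grown Palmer amaranth (25 to 28° C, 16 h light) sprayed postemergence at the 2 to 8 leaf stage with 140 or 280 g ae/ha in acetone/DMSO-based solution containing crop oil concentrate, 187 L/ha by track sprayer. Three to four replicates; plant size measured 21 days after treatment as percent reduction versus untreated control.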

Setting [4] is: AMBEL, rate 140 g ae/ha, postemergence.
Where [5] appears, read: AMBEL, rate 280 g ae/ha, postemergence.
Setting [6] is: AMATA, rate 140 g ae/ha, postemergence.
The mark [7] stands for this setting: AMATA, rate 280 g ae/ha, postemergence.
Setting [8] is: ERICA, rate 140 g ae/ha, postemergence, percent reduction vs untreated control, 21 days after treatment.
[9] abbreviates: ERICA, rate 280 g ae/ha, postemergence, percent reduction vs untreated control, 21 days after treatment.
The mark [10] stands for this setting: KCHSC, rate 140 g ae/ha, postemergence, percent reduction vs untreated control, 21 days after treatment.
Where [11] appears, read: KCHSC, rate 280 g ae/ha, postemergence, percent reduction vs untreated control, 21 days after treatment.
Setting [12] is: R-AMAPA, rate 140 g ae/ha, postemergence, percent reduction vs untreated control, 21 days after treatment.
[13] abbreviates: R-AMAPA, rate 280 g ae/ha, postemergence, percent reduction vs untreated control, 21 days after treatment.

Where two headings read alike, the source gives them in different places.

For the compound `COc1c(Cl)ccc(Cl)c1C(=O)Oc1nc(-c2ccccc2)cs1` [Compound A-120], the pest or weed control at 140 g/ha in data set [1] (ERICA, rate 140 g ae/ha, postemergence) amounted to 85%; in the data set on Kochia scoparia (KCHSC) (KCHSC, rate 140 g ae/ha, postemergence, percent reduction vs untreated, 21 days after treatment), 63%; in data set [2] (setting [4]) it was 68%; in the data set with Amaranthus rudis (AMATA) (setting [6]), 40%; in data set [3] (AMAPA, rate 140 g ae/ha, postemergence) it was 28%. Moreover, the pest or weed control at 280 g/ha in data set [1] (ERICA, rate 280 g ae/ha, postemergence) is 99%; in the data set on Kochia scoparia (KCHSC) (KCHSC, rate 280 g ae/ha, postemergence, percent reduction vs untreated, 21 days after treatment), 85%; in data set [2] (setting [5]) it was 85%; with Amaranthus rudis (AMATA) (setting [7]) it was 58%; in data set [3] (AMAPA, rate 280 g ae/ha, postemergence), 45%. The compound further displayed a Control/Injury in the data set on Glycine max (in vivo) of 5.

In the case of `COc1c(Cl)ccc(Cl)c1C(=O)O/N=C(\C)C(C)(C)C` [Compound A-82], the pest or weed control at 140 g/ha in data set [1] (setting [8]) worked out at 91%; in the data set with Kochia scoparia (KCHSC) (setting [10]), 98%; in data set [2] (setting [4]) it was 90%; with Amaranthus rudis (AMATA) (setting [6]), 78%; in data set [3] (setting [12]), 85%. In addition, the pest or weed control at 280 g/ha in data set [1] (setting [9]) was found to be 96%; in the data set with Kochia scoparia (KCHSC) (setting [11]), 88%; in data set [2] (setting [5]) it was 88%; with Amaranthus rudis (AMATA) (setting [7]), 72%; in data set [3] (setting [13]), 83%. In addition, in the data set with Glycine max, the plant injury at 140 g/ha amounted to 27%. Also, in the data set with Glycine max, the plant injury at 280 g/ha is 7%.

For `COc1c(Cl)ccc(Cl)c1C(=O)O/N=C(\C#N)c1ccccc1` [Compound A-84], the pest or weed control at 140 g/ha in data set [1] was 37%; in the data set on Kochia scoparia (KCHSC) it was 68%; in data set [2], 70%; in the data set with Amaranthus rudis (AMATA), 17%; in data set [3], 33%. Besides, the pest or weed control at 280 g/ha in data set [1] stood at 78%; with Kochia scoparia (KCHSC) it was 85%; in data set [2], 78%; with Amaranthus rudis (AMATA), 27%; in data set [3], 28%. Also, in the data set on Glycine max, the plant injury at 140 g/ha came to 8%. Also, the plant injury at 280 g/ha with Glycine max came to 38%.

With `COc1c(Cl)ccc(Cl)c1C(=O)ON1CCCCC1` [Compound A-92], the pest or weed control at 140 g/ha in data set [1] (setting [8]) turned out to be 85%; in the data set on Kochia scoparia (KCHSC) (setting [10]) it was 83%; in data set [2] (setting [4]), 92%; in the data set with Amaranthus rudis (AMATA) (setting [6]), 63%; in data set [3] (setting [12]), 78%. For the same compound, the pest or weed control at 280 g/ha in data set [1] (setting [9]) worked out at 92%; in the data set with Kochia scoparia (KCHSC) (setting [11]) it was 98%; in data set [2] (setting [5]), 96%; in the data set on Amaranthus rudis (AMATA) (setting [7]), 92%; in data set [3] (setting [13]), 80%. The plant injury at 140 g/ha in the data set on Glycine max was 2%. Further, in the data set on Glycine max, the plant injury at 280 g/ha was determined as 4%.

Turning to `CCOC(=O)/C(C#N)=N/OC(=O)c1c(Cl)ccc(Cl)c1OC` [Compound A-86], the pest or weed control at 140 g/ha worked out at 87% in data set [1] (setting [8]); 90% with Kochia scoparia (KCHSC) (setting [10]); 88% in data set [2] (setting [4]); 63% in the data set on Amaranthus rudis (AMATA) (setting [6]); 72% in data set [3] (setting [12]). Besides, the pest or weed control at 280 g/ha in data set [1] (setting [9]) worked out at 95%; in the data set with Kochia scoparia (KCHSC) (setting [11]), 97%; in data set [2] (setting [5]), 91%; in the data set with Amaranthus rudis (AMATA) (setting [7]), 67%; in data set [3] (setting [13]) it was 73%. Further, in the data set with Glycine max, the plant injury at 140 g/ha is 32%. Besides, the plant injury at 280 g/ha in the data set on Glycine max amounted to 25%.

(Values after patent publication US20240122179A1, “AUXINIC HERBICIDES AND METHODS OF USE THEREOF” (CORTEVA AGRISCIENCE LLC, priority 2021, published 2024).)
